How the values were obtained:
Type in all cases: functional
L1210 [1] = experiment: Cytotoxicity against mouse L1210 cells; conditions: for IC50: Mus musculus
B16 [2] = experiment: Antitumor activity against mouse B16 cells xenografted in mouse assessed as increase in life span at 12 mg/kg/day, ip after 9 days; conditions: route intraperitoneal
P388 [3] = experiment: Antitumor activity against mouse P388 cells xenografted in mouse assessed as increase in life span at 6.5 mg/kg/day, ip after 9 days; conditions: route intraperitoneal
L1210 [4] = experiment: Inhibition of DNA synthesis in mouse L1210 cells; conditions: read-out: ID50 (the source's name)
L1210 [5] = experiment: Inhibition of RNA synthesis in mouse L1210 cells; conditions: read-out: ID50 (the source's name)
P388 [6] = experiment: Antitumor activity against mouse P388 cells xenografted in mouse assessed as increase in life span at 25 mg/kg/day, ip after 9 days; conditions: route intraperitoneal
B16 [7] = experiment: Antitumor activity against mouse B16 cells xenografted in mouse assessed as increase in life span at 50 mg/kg/day, ip after 9 days; conditions: route intraperitoneal
L1210 [8] = experiment: Antitumor activity against mouse L1210 cells xenografted in mouse assessed as increase in life span at 50 mg/kg/day, ip after 9 days; conditions: route intraperitoneal
P388 [9] = experiment: Antitumor activity against mouse P388 cells xenografted in mouse assessed as increase in life span at 100 mg/kg/day, ip after 9 days; conditions: route intraperitoneal
P388 [10] = experiment: Antitumor activity against mouse P388 cells xenografted in mouse assessed as increase in life span at 8 mg/kg/day, ip after 9 days; conditions: route intraperitoneal
P388 [11] = experiment: Antitumor activity against mouse P388 cells xenografted in mouse assessed as increase in life span at 50 mg/kg/day, ip after 9 days; conditions: route intraperitoneal
P388 [12] = experiment: Antitumor activity against mouse P388 cells xenografted in mouse assessed as increase in life span at 5 mg/kg/day, ip after 9 days; conditions: route intraperitoneal
P388 [13] = experiment: Antitumor activity against mouse P388 cells xenografted in mouse assessed as increase in life span at 12.5 mg/kg/day, ip after 9 days; conditions: route intraperitoneal
P388 [14] = experiment: Antitumor activity against mouse P388 cells xenografted in mouse assessed as increase in life span at 10 mg/kg/day, ip after 9 days; conditions: route intraperitoneal
P388 [15] = experiment: Antitumor activity against mouse P388 cells xenografted in mouse assessed as increase in life span at 70 mg/kg/day, ip after 9 days; conditions: route intraperitoneal
[16] = L1210, read-out: ID50 (the source's name)

SMILES: CCCO[C@H]1C[C@](C)(O)[C@H](C(=O)OC)c2cc3c(c(O)c21)C(=O)c1c(O)cc2c(c1C3=O)O[C@@H]1O[C@@]2(C)[C@H](O)[C@@H](N(C)C)[C@@H]1O
- IC50 (L1210 [1]; L1210, read-out: ID50): 0.16 mg/L

SMILES: CCO[C@H]1C[C@@](C)(O)Cc2cc3c(c(O)c21)C(=O)c1c(O)cc2c(c1C3=O)O[C@@H]1O[C@@]2(C)[C@H](O)[C@@H](N(C)C)[C@@H]1O
- Activity (B16 [2]): 25%
- IC50 (L1210 [1]; L1210, read-out: ID50): 0.16 mg/L
- Activity (P388 [3]): 63%
- IC50 (L1210 [4]): 10.6 µM
- IC50 (L1210 [5]): 5.2 µM

SMILES: CCN[C@H]1C[C@](C)(O)[C@H](C(=O)OC)c2cc3c(c(O)c21)C(=O)c1c(O)cc2c(c1C3=O)O[C@@H]1O[C@@]2(C)[C@H](O)[C@@H](N(C)C)[C@@H]1O
- Activity (P388 [6]): 55%

SMILES: COC(=O)[C@@H]1c2cc3c(c(O)c2[C@@H](OC)C[C@]1(C)O)C(=O)c1c(O)cc2c(c1C3=O)O[C@@H]1O[C@@]2(C)[C@H](O)[C@@H](N(C)C)[C@@H]1O
- Activity (B16 [7]): 84%
- Activity (P388 [6]): 60%
- IC50 (L1210 [1]; L1210, read-out: ID50): 0.27 mg/L
- Activity (L1210 [8]): 12%
- IC50 (L1210 [4]): 3.8 µM
- IC50 (L1210 [5]): 0.5 µM

SMILES: CN(C)[C@H]1[C@H](O)[C@@H]2Oc3c(cc(O)c4c3C(=O)c3cc5c(c(O)c3C4=O)CC[C@](C)(O)C5)[C@@](C)(O2)[C@@H]1O
- ID95 (L1210 [1]): 1.76 µM
- IC50 (L1210 [1]; [16]): 0.94 µM
- Activity (P388 [9]): 21%

SMILES: CCN(CC)[C@H]1C[C@](C)(O)[C@H](C(=O)OC)c2cc3c(c(O)c21)C(=O)c1c(O)cc2c(c1C3=O)O[C@@H]1O[C@@]2(C)[C@H](O)[C@@H](N(C)C)[C@@H]1O
- Activity (P388 [6]): 38%

SMILES: CCO[C@H]1C[C@](C)(O)[C@H](C(=O)OC)c2cc3c(c(O)c21)C(=O)c1c(O)cc2c(c1C3=O)O[C@@H]1O[C@@]2(C)[C@H](O)[C@@H](N(C)C)[C@@H]1O
- IC50 (L1210 [1]; L1210, read-out: ID50): 0.16 mg/L

SMILES: COC(=O)[C@@H]1c2cc3c(c(O)c2[C@@H](SC)C[C@]1(C)O)C(=O)c1c(O)cc2c(c1C3=O)O[C@@H]1O[C@@]2(C)[C@H](O)[C@@H](N(C)C)[C@@H]1O
- Activity (P388 [10]): 37%

SMILES: COC(=O)[C@@H]1c2cc3c(c(O)c2CC[C@]1(C)O)C(=O)c1c(O)cc2c(c1C3=O)O[C@@H]1O[C@@]2(C)[C@H](O)[C@@H](N(C)C)[C@@H]1O
- Activity (P388 [11]): 27%
- ID95 (L1210 [1]): 1.51 µM
- IC50 (L1210 [1]; [16]): 0.58 µM

SMILES: COC(=O)[C@@H]1c2cc3c(c(O)c2[C@@H](N=[N+]=[N-])C[C@]1(C)O)C(=O)c1c(O)cc2c(c1C3=O)O[C@@H]1O[C@@]2(C)[C@H](O)[C@@H](N(C)C)[C@@H]1O
- Activity (P388 [12]): 33%

SMILES: Cc1ccc2c(O)c3c(cc2c1)C(=O)c1c2c(cc(O)c1C3=O)[C@@]1(C)O[C@@H](O2)[C@@H](O)[C@H](N(C)C)[C@H]1O [NOGARENE]
- ID95 (L1210 [1]): 0.37 µM
- IC50 (L1210 [1]; [16]): 0.22 µM
- Activity (P388 [13]): 17%

SMILES: COC(=O)[C@@H]1c2cc3c(c(O)c2[C@@H](OC(C)=O)C[C@]1(C)O)C(=O)c1c(O)cc2c(c1C3=O)O[C@@H]1O[C@@]2(C)[C@H](O)[C@@H](N(C)C)[C@@H]1O
- Activity (P388 [14]): 87%

SMILES: COC(=O)c1c(C)ccc2c(O)c3c(cc12)C(=O)c1c2c(cc(O)c1C3=O)[C@@]1(C)O[C@@H](O2)[C@@H](O)[C@H](N(C)C)[C@H]1O [NOGALARENE]
- Activity (P388 [15]): 50%
- ID95 (L1210 [1]): 0.58 µM
- IC50 (L1210 [1]; [16]): 0.24 µM

Reference: ChEMBL document CHEMBL1158657, “Improved antitumor activity by modification of nogalamycin” (1979)
